Laboratory results published in US9758538B2, “Pyrimidine derivatives” (PFIZER INC., priority 2015, dated 2017).

Each compound was assayed against truncated PI3Kα (p110α/iSH2 p85α), PI3KA_Act (Homo sapiens (Human), UniProt P42336) (assay: PI3Kα biochemical kinase assay, fluorescence polarization format (PI3KA_Act)). Conditions: 0.5 nM p110α/iSH2 p85, 1 mM ATP, 30 μM PIP2, 15-min preincubation; Morrison equation fit; read-out: PI3KA_Act Ki.
Description: Enzyme Production for Biochemical Assay: p110α-iSH2 p85α Complex (Full Length p110α and p85α iSH2)(“PI3KA Act”)
Gene encoding p110α subunit was subcloned into polyhedrine promoter while gene encoding p85α niSH2 domains was subcloned into p10 promoter. […] Recombinant baculovirus was generated using Bac-to-Bac protocol (Life Technologies, Carlsbad, Calif.). Large scale expression was conducted in Sf21 (Life Technologies, Carlsbad, Calif.) cells at a multiplicity of infection (“MOI”)=1 for 48 hours. Cells were lyzed in 50 mM Tris pH 8.0, 250 mM NaCl, 5% glycerol, 0.25 mM TCEP, and 20 mM imidazole. The p110α-niSH2 p85α complex was purified from clarified supernatant using Immobilized Metalo Affinity Chromatography (“IMAC”). The protein was eluted from the column using 50 mM Tris pH 8.0, 200 mM NaCl, 0.25 mM TCEP, and 200 mM imidazole. Following elution p110α-niSH2 p85α complex was dialyzed against 4 liters of 50 mM Tris pH 8.0, 200 mM NaCl, 0.25 mM TCEP, and 40 mM imidazole in the presence of PreScission Protease (1:70 molar ratio of Protease to Protein) and TEV protease (1:40 molar ratio protease to protein) for 16 hours at 4° C. The protein was further purified using reverse IMAC to remove cleaved histidine tag and contaminants captured during initial IMAC purification. The mixture of p110α-iSH2 p85α complex and cleaved nSH2 was recovered in reverse IMAC 40 mM imidazole flow through and 60 mM imidazole wash fractions. Those fractions were pulled together and loaded on Superdex 200 26/60 SEC column equilibrated in 25 mM Tris, pH 8.0, 100 mM NaCl, 2% glycerol, and 2 mM TCEP.
The enzymatic reactions were conducted in 50 μL volumes in 96-well plates. […] The reactions were incubated for 30 min at room temperature, stopped with EDTA pH 8 (10 mM final concentration). […] The plate was shaken for 30 minutes and fluorescence polarization values were measured on an LJL Analyst HT plate reader (Molecular Devices, Sunnyvale, Calif.).

Sequence of truncated PI3Kα (p110α/iSH2 p85α), PI3KA_Act (P42336 whole entry, the tested form may be a part): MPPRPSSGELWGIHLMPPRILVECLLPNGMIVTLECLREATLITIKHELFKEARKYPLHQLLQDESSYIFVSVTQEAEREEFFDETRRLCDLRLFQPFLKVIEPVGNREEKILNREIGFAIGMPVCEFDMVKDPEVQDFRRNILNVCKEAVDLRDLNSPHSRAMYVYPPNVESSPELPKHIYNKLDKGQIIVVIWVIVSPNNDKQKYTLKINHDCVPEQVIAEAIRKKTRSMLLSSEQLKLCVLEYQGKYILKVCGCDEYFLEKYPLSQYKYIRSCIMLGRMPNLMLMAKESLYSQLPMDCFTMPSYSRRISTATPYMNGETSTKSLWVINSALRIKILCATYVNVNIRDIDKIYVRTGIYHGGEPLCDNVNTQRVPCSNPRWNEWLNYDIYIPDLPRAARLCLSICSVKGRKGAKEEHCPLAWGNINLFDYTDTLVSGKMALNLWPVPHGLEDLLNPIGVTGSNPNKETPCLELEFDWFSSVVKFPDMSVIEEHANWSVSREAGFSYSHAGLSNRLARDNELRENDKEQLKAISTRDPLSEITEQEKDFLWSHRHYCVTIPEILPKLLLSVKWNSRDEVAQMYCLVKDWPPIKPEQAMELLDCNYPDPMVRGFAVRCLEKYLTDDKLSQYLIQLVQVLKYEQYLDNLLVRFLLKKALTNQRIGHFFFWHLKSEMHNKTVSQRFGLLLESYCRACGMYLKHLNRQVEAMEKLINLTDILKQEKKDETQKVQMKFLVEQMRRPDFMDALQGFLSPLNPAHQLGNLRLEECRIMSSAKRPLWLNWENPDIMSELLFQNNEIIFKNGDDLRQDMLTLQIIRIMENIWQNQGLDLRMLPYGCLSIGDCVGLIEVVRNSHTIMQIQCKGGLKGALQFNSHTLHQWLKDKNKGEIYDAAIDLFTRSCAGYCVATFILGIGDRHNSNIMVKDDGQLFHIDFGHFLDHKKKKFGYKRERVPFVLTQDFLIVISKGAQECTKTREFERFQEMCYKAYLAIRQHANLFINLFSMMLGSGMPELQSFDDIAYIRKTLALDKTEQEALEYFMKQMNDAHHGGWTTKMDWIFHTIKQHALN

Row | Compound | Ki [nM]
1 | Nc1ncc(-c2cc(N[C@@]3(CO)CCN(C(=O)NCC(F)(F)F)C3)nc(N3CCOCC3)n2)cn1 [Example 133, (3S)-3-{[2′-amino-2-(morpholin-4-yl)-4,5′-bipyrimidin-6-yl]amino}-3-(hydroxymethyl)-N-(2,2,2-trifluoroethyl)pyrrolidine-1-carboxamide] | 0.795
2 | Cc1ncc(-c2cc(N[C@@]3(CO)CCN(C(=O)C4(F)CC4)C3)nc(N3CCOCC3)n2)cn1 [Example 136, (1-fluorocyclopropyl)[(3S)-3-(hydroxymethyl)-3-{[2′-methyl-2-(morpholin-4-yl)-4,5′-bipyrimidin-6-yl]amino}pyrrolidin-1-yl]methanone] | 0.739
3 | Nc1ncc(-c2nc(N3CCOCC3)nc(N[C@@]3(CO)CCCN(C(=O)C4CC4)C3)c2F)cn1 [Example 156, [(3S)-3-{[2′-amino-5-fluoro-2-(morpholin-4-yl)-4,5′-bipyrimidin-6-yl]amino}-3-(hydroxymethyl)piperidin-1-yl](cyclopropyl)methanone] | 0.454
4 | CC(C)(C)OC(=O)N1CCC(CO)(Oc2cc(-c3cnc(N)nc3)nc(N3CCOCC3)n2)C1 (single isomer, unassigned) [Example 8, tert-butyl 3-{[2′-amino-2-(morpholin-4-yl)-4,5′-bipyrimidin-6-yl]oxy}-3-(hydroxymethyl)pyrrolidine-1-carboxylate] | < 0.018
5 | CC(C)(C)OC(=O)N1CC[C@](CO)(Nc2nc(-c3cnc(N)nc3)nc(N3CCOCC3)n2)C1 [Example 39, tert-butyl (3S)-3-{[4-(2-aminopyrimidin-5-yl)-6-(morpholin-4-yl)-1,3,5-triazin-2-yl]amino}-3-(hydroxymethyl)pyrrolidine-1-carboxylate] | 0.105
6 | C[C@H]1COCCN1c1nc(NC2(CO)CN(C(=O)OC(C)(C)C)C2)cc(-c2cnc(N)nc2)n1 [Example 49, tert-butyl 3-({2′-amino-2-[(3S)-3-methylmorpholin-4-yl]-4,5′-bipyrimidin-6-yl}amino)-3-(hydroxymethyl)azetidine-1-carboxylate] | 0.083
7 | CCOC(=O)N1CC[C@@](CC)(Nc2cc(-c3cnc(N)nc3)nc(N3CCOCC3)n2)C1 [Example 95, ethyl (3R)-3-{[2′-amino-2-(morpholin-4-yl)-4,5′-bipyrimidin-6-yl]amino}-3-ethylpyrrolidine-1-carboxylate] | 0.412
8 | Nc1ncc(-c2nc(N3CCOCC3)nc(N[C@@]3(CO)CCCN(C(=O)OCC(F)F)C3)c2F)cn1 [Example 149, 2,2-difluoroethyl (3S)-3-{[2′-amino-5-fluoro-2-(morpholin-4-yl)-4,5′-bipyrimidin-6-yl]amino}-3-(hydroxymethyl)piperidine-1-carboxylate] | < 0.018
9 | Nc1ncc(-c2cc(N[C@@]3(CO)CCN(c4ccccn4)C3)nc(N3CCOCC3)n2)cn1 [Example 85, [(3S)-3-{[2′-amino-2-(morpholin-4-yl)-4,5′-bipyrimidin-6-yl]amino}-1-(pyridin-2-yl)pyrrolidin-3-yl]methanol] | 0.067
10 | Nc1ncc(-c2cc(N[C@@]3(CO)CCN(C(=O)c4ncc[nH]4)C3)nc(N3CCOCC3)n2)cn1 [Example 86, [(3S)-3-{[2′-amino-2-(morpholin-4-yl)-4,5′-bipyrimidin-6-yl]amino}-3-(hydroxymethyl)pyrrolidin-1-yl](1H-imidazol-2-yl)methanone] | 0.026
11 | Nc1ncc(-c2nc(N3CCOCC3)nc(N[C@]3(CO)CCCNC3)c2F)cn1 [Example 144, [(3R)-3-{[2′-amino-5-fluoro-2-(morpholin-4-yl)-4,5′-bipyrimidin-6-yl]amino}piperidin-3-yl]methanol] | 13.9
12 | Nc1ncc(-c2cc(N[C@@]3(CO)CCN(C(=O)c4cn[nH]c4)C3)nc(N3CCOCC3)n2)cn1 [Example 90, [(3S)-3-{[2′-amino-2-(morpholin-4-yl)-4,5′-bipyrimidin-6-yl]amino}-3-(hydroxymethyl)pyrrolidin-1-yl](1H-pyrazol-4-yl)methanone] | < 0.018
13 | CC(C)(C)CC(=O)N1CC[C@](CO)(Nc2cc(-c3cnc(N)nc3)nc(N3CCOCC3)n2)C1 [Example 61, 1-[(3S)-3-{[2′-amino-2-(morpholin-4-yl)-4,5′-bipyrimidin-6-yl]amino}-3-(hydroxymethyl)pyrrolidin-1-yl]-3,3-dimethylbutan-1-one] | 0.054
14 | CC(C)(C)OC(=O)N1CCC(CO)(Oc2cc(-c3cnc(N)nc3)nc(N3CCOCC3)n2)C1 (racemic) [Example 7, tert-butyl 3-{[2′-amino-2-(morpholin-4-yl)-4,5′-bipyrimidin-6-yl]oxy}-3-(hydroxymethyl)pyrrolidine-1-carboxylate] | 0.058
15 | Nc1ncc(-c2nc(N3CCOCC3)nc(N[C@@]3(CO)CCNC3)c2F)cn1 [Example 137, [(3S)-3-{[2′-amino-5-fluoro-2-(morpholin-4-yl)-4,5′-bipyrimidin-6-yl]amino}pyrrolidin-3-yl]methanol] | 48.7
16 | CC(C)[C@@H](N)C(=O)N1CC[C@](CO)(Nc2cc(-c3cnc(N)nc3)nc(N3CCOCC3)n2)C1 [Example 50, (2R)-2-amino-1-[(3S)-3-{[2′-amino-2-(morpholin-4-yl)-4,5′-bipyrimidin-6-yl]amino}-3-(hydroxymethyl)pyrrolidin-1-yl]-3-methylbutan-1-one] | 0.137
17 | CC(C)(C)OC(=O)N1CCC(CO)(Oc2cc(-c3cnc(N)nc3)nc(N3CCOCC3)n2)C1 (single isomer, unassigned) [Example 9, tert-butyl 3-{[2′-amino-2-(morpholin-4-yl)-4,5′-bipyrimidin-6-yl]oxy}-3-(hydroxymethyl)pyrrolidine-1-carboxylate] | 0.492
18 | CC(C)[C@H](N)C(=O)N1CC[C@](CO)(Nc2cc(-c3cnc(N)nc3)nc(N3CCOCC3)n2)C1 [Example 51, (2S)-2-amino-1-[(3S)-3-{[2′-amino-2-(morpholin-4-yl)-4,5′-bipyrimidin-6-yl]amino}-3-(hydroxymethyl)pyrrolidin-1-yl]-3-methylbutan-1-one] | 0.619
19 | Cn1ccnc1C(=O)N1CC[C@](CO)(Nc2cc(-c3cnc(N)nc3)nc(N3CCOCC3)n2)C1 [Example 73, [(3S)-3-{[2′-amino-2-(morpholin-4-yl)-4,5′-bipyrimidin-6-yl]amino}-3-(hydroxymethyl)pyrrolidin-1-yl](1-methyl-1H-imidazol-2-yl)methanone] | 0.746
20 | C[C@H]1COCCN1c1nc(N[C@@]2(CO)CCN(C(=O)OC(C)(C)C)C2)c(F)c(-c2cnc(N)nc2)n1 [Example 111, tert-butyl (3S)-3-({2′-amino-5-fluoro-2-[(3S)-3-methylmorpholin-4-yl]-4,5′-bipyrimidin-6-yl}amino)-3-(hydroxymethyl)pyrrolidine-1-carboxylate] | < 0.018
21 | CC(=O)N1CC[C@](C)(Nc2nc(N3CCOCC3)nc(-c3cnc(N)nc3)c2F)C1 [Example 106, 1-[(3S)-3-{[2′-amino-5-fluoro-2-(morpholin-4-yl)-4,5′-bipyrimidin-6-yl]amino}-3-methylpyrrolidin-1-yl]ethanone] | 0.12
22 | CCOC(=O)N1CC[C@](CO)(Nc2cc(-c3cnc(N)nc3)nc(N3CCOC[C@@H]3C)n2)C1 [Example 64, ethyl (3S)-3-({2′-amino-2-[(3S)-3-methylmorpholin-4-yl]-4,5′-bipyrimidin-6-yl}amino)-3-(hydroxymethyl)pyrrolidine-1-carboxylate] | < 0.018
23 | CC(C)(C)OC(=O)N1CC[C@](C)(Nc2nc(N3CCOCC3)nc(-c3cnc(N)nc3)c2F)C1 [Example 108, tert-butyl (3S)-3-{[2′-amino-5-fluoro-2-(morpholin-4-yl)-4,5′-bipyrimidin-6-yl]amino}-3-methylpyrrolidine-1-carboxylate] | 0.036
24 | Nc1ncc(-c2cc(N[C@@]3(CO)CCN(C(=O)N4CCCC4)C3)nc(N3CCOCC3)n2)cn1 [Example 78, [(3S)-3-{[2′-amino-2-(morpholin-4-yl)-4,5′-bipyrimidin-6-yl]amino}-3-(hydroxymethyl)pyrrolidin-1-yl](pyrrolidin-1-yl)methanone] | 0.267
25 | C[C@H]1COCCN1c1nc(N[C@@]2(CO)CCN(C(=O)OC(C)(C)C)C2)cc(-c2cnc(N)nc2)n1 [Example 36, tert-butyl (3S)-3-({2′-amino-2-[(3S)-3-methylmorpholin-4-yl]-4,5′-bipyrimidin-6-yl}amino)-3-(hydroxymethyl)pyrrolidine-1-carboxylate] | < 0.018

Same assay, conditions: PI3KA_Act Ki (nM), 0.5 nM p110α/iSH2 p85, 1 mM ATP, 30 μM PIP2, 15-min preincubation; Morrison equation fit

Row | Compound | Ki [nM]
26 | Nc1ncc(-c2nc(N3CCOCC3)nc(N[C@@]3(CO)CCN(C(=O)OCC(F)(F)F)C3)c2F)cn1 [Example 140, 2,2,2-trifluoroethyl (3S)-3-{[2′-amino-5-fluoro-2-(morpholin-4-yl)-4,5′-bipyrimidin-6-yl]amino}-3-(hydroxymethyl)pyrrolidine-1-carboxylate] | < 0.018
